Read-outs that look alike come from different tables or passages of the source.
Key:
[1] = tested on: CRL 1790 cells; experiment: Cytotoxicity assay, non-malignant CRL 1790 colon cells; assay type: cell-based; settings: Homo sapiens, 48 h
Text: (§1) Evaluation of the cytotoxic properties of the compounds presented in Table 1, Table 2, Table 3 and Table 4 was undertaken using the procedure outlined in [7]. In brief, the HCT 116 cells were obtained from the ATCC and cultured in McCoy’s 5A medium. The CRL 1790 cells were obtained from the ATCC and cultured in Minimum Essential Medium. The MCF-7 and MDA-MBA-231 cells were obtained from the Saskatchewan Cancer Agency and cultured in DMEM. In each assay the culture medium was supplemented with 10% fetal bovine serum and 1% penicillin–streptomycin antibiotics. The time of the bioassays was 48 h, unless indicated otherwise. All determinations were carried out in triplicate on three different occasions.

[2] = tested on: HCT 116 cells; experiment: Cytotoxicity assay, HCT 116 colon cancer cells; assay type: cell-based, human; settings: for IC50 / inhibition at 10 µM / inhibition at 100 µM: Homo sapiens, HCT-116, 48 h; for IC50: read-out: IC50 HCT 116; for inhibition at 10 µM / inhibition at 100 µM: read-out: percentage inhibition of HCT 116 cells
Text: as §1

[3] = tested on: HCT 116 cells; experiment: Mitochondrial membrane potential of HCT 116 cells (TMRE dye); assay type: cell-based, human; settings: IC50 concentration towards HCT 116, 48 h, Figure 4
Text: The method of Crowley et al. was employed in order to ascertain the effects of 1m, 7a, e, g, and 5-FU on the mitochondrial membrane potential of HCT 116 cells.
The decision was made to experiment with another method for determining the effect of compounds on the MMP. In this assay, the dye used was tetramethylrhodamine ethyl ester (TMRE), which can be found in the mitochondria of healthy cells. However, in apoptotic cells, the dye is released into the cytosol, leading to a decrease in the fluorescence signal.

[4] = tested on: HCT 116 cells; experiment: ROS levels in HCT 116 cells (DCF-DA dye); assay type: cell-based, human; settings: IC50 concentration towards HCT 116; DCF-DA fluorescence; Figure 5
Method: In this assay, the dye 2,7-dichlorofluorescein diacetate (DCF-DA) was used, and the effects of 1m, 7a, e, g, and 5-FU on the ROS levels in HCT 116 cells were determined by the method of [11].
The evaluation of 1m, […], e, and g for their capacity to increase the concentration of ROS in HCT 116 cells used 2′,7′-dichlorofluorescein diacetate. This dye is deacetylated in cells, and is converted into a non-fluorescent compound that reacts with ROS to form 2′,7′-dichlorofluorescein, which is fluorescent.

[5] = tested on: MDA-MB-231 cells; experiment: Cytotoxicity assay, MDA-MB-231 breast cancer cells; assay type: cell-based, human; settings: Homo sapiens, MDA-MB-231, 48 h, read-out: percentage inhibition of MDA-MB-231 cells
Text: as §1

[6] = tested on: MCF-7 cells; experiment: Cytotoxicity assay, MCF-7 breast cancer cells; assay type: cell-based, human; settings: for inhibition at 10 µM / inhibition at 100 µM: read-out: percentage inhibition of MCF-7 cells
Text: as §1

[7] = Cytotoxicity (CC50), average over non-malignant cells; assay type: cell-based; settings: human, Hs27 and MCF10A cells (non-malignant), average of both
Method: (§2) In brief, the compounds were incubated for 24 h with the neoplasms, using DMEM and RPMI media. Three independent experiments were carried out.

[8] = tested on: Ramos cells; experiment: Cytotoxicity (CC50), Ramos cells; assay type: cell-based, human
Method: as §2

[9] = tested on: CEM cells; experiment: Cytotoxicity (CC50), CEM cells; assay type: cell-based, human
Method: as §2

[10] = Cytotoxicity (CC50), non-malignant MCF-10A breast cells; assay type: cell-based; settings: human, MCF-10A cells (non-malignant breast cells); 24 h incubation; read-out: Non-Malignant Cells CC50, MCF10A
Method: as §2

[11] = tested on: HL-60 cells; experiment: Cytotoxicity (CC50), HL-60 cells; assay type: cell-based, human
Method: as §2

[12] = tested on: RAJI cells; experiment: Cytotoxicity (CC50), Raji cells; assay type: cell-based, human
Method: as §2

[13] = tested on: Ramos, NALM-60, CEM, HL-60, JURKAT, RAJI cells; experiment: Cytotoxicity (CC50), average over six leukemia/lymphoma cell lines; assay type: cell-based, human
Method: as §2

[14] = Cytotoxicity (CC50), non-malignant Hs27 foreskin cells; assay type: cell-based; settings: human, 24 h incubation
Method: as §2

[15] = tested on: NALM-60 cells; experiment: Cytotoxicity (CC50), NALM-60 cells; assay type: cell-based, human
Method: as §2

[16] = tested on: JURKAT cells; experiment: Cytotoxicity (CC50), Jurkat cells; assay type: cell-based, human
Method: as §2

[17] = Table 4, read-out: IC50 CRL 1790

For `COc1ccc(C(=O)NNC(=O)CCN2CC(=Cc3ccc(C)cc3)C(=O)C(=Cc3ccc(C)cc3)C2)cc1OC` [7g, 3,5-Bis(4-methylbenzylidene)-1-[3-(3,4-dimethoxyphenylcarbonylaminoamino)-3-oxo-1-propyl]-4-piperidone], the IC50 [1, 17] was 9240 ± 520 nM, the IC50 ([2]; Table 4) was 1940 ± 180 nM and the “SI (selectivity index)” value ([2]; IC50 CRL 1790 / IC50 HCT 116, Table 4) was 4.76. For the same molecule, the “effect on mitochondrial membrane potential of HCT 116 cells” value [3] was “only 7e reduces the electrochemical potential of the mitochondria”, the melting point was 190 to 192 °C and the “effect on ROS levels in HCT 116 cells” value [4] was “increase the fluorescence intensity”.
In the case of `O=C(CCN1CC(=Cc2ccccc2)C(=O)C(=Cc2ccccc2)C1)NNC(=O)c1ccccc1` [7a, 3,5-Bis(benzylidene)-1-[3-(phenylcarbonylaminoamino)-3-oxo-1-propyl]-4-piperidone], the IC50 [1, 17] is reported as 12300 ± 1090 nM, the IC50 ([2]; Table 4) is reported as 1380 ± 250 nM and the “times more potent than 1a” value ([2]; ratio of IC50 values towards HCT 116 cells) is reported as 26.7 times. The “effect on mitochondrial membrane potential of HCT 116 cells” value [3] was “only 7e reduces the electrochemical potential of the mitochondria”, the melting point was 154 to 156 °C and the “effect on ROS levels in HCT 116 cells” value [4] was “increase the fluorescence intensity”.
`C=CC(=O)NNC(=O)c1ccccc1C` [1j, N^2-Acryloyl-2-methylbenzohydrazide] gave an IC50 ([1]; Table 2, read-out: Non-Malignant CRL 1790 Cells IC50) greater than 100000 nM, an inhibition at 10 µM [2] of 10.4 ± 1.61% and an inhibition at 100 µM [2] of 62.1 ± 2.48%. It also gave an inhibition at 10 µM [5] of -2.64 ± 2.37%, an inhibition at 100 µM [5] of 46.8 ± 3.63% and an inhibition at 10 µM ([6]; Homo sapiens, MCF7, 48 h) of 53.3 ± 3.07%. The inhibition at 100 µM ([6]; Homo sapiens, MCF7, 48 h) was greater than 100%, the IC50 ([6]; Homo sapiens, MCF7, Table 2, 48 h, read-out: Neoplastic Cells IC50, MCF-7) was 9140 ± 1310 nM and the “SI (selectivity index)” value ([6]; IC50 CRL 1790 / IC50 MCF-7, Table 2) was greater than 10.9. It also gave a melting point of 151 to 153 °C.
With `C=CC(=O)NNC(=O)c1ccc(Cl)cc1` [1d, N^2-Acryloyl-4-chlorobenzohydrazide] the CC50 at 24 h [7] was 8690 nM, the inhibition at 10 µM [2] was -5.05 ± 2.36% and the inhibition at 100 µM [2] was 82.3 ± 0.8%. The CC50 ([8]; Homo sapiens, Ramos, 24 h incubation) was 150 ± 20 nM, the “SI Ramos” value ([8]; average CC50 of non-malignant cells / CC50 Ramos) was 57.9 and the CC50 ([9]; Homo sapiens, CCRF-CEM, 24 h incubation) was 860 ± 70 nM. The “SI CEM” value ([9]; average CC50 of non-malignant cells / CC50 CEM) was 10.1, the CC50 at 24 h [10] was 6870 ± 480 nM and the inhibition at 10 µM [5] was -12.3 ± 4.05%. For the same molecule, the inhibition at 100 µM [5] was 49.1 ± 2.04%, the CC50 ([11]; Homo sapiens, HL-60, 24 h incubation) was 2900 ± 760 nM and the “SI HL-60” value ([11]; average CC50 of non-malignant cells / CC50 HL-60) was 3.00. The inhibition at 10 µM ([6]; Homo sapiens, MCF7, 48 h) was 3.59 ± 2.08%, the inhibition at 100 µM ([6]; Homo sapiens, MCF7, 48 h) was 55.9 ± 2.82% and the CC50 ([12]; Homo sapiens, Raji, 24 h incubation) was 2710 ± 90 nM. The “SI RAJI” value ([12]; average CC50 of non-malignant cells / CC50 RAJI) was 3.24, the “Avg SI, neoplastic cells” value [13] was 14.2 and the CC50 ([13]; Homo sapiens, average over six neoplastic cell lines) was 1760 nM. For the same molecule, the melting point was 233 to 235 °C, the CC50 at 24 h [14] was 10500 ± 50 nM and the CC50 ([15]; Homo sapiens, 24 h incubation) was 2860 ± 550 nM. For the same molecule, the “SI NALM-60” value ([15]; average CC50 of non-malignant cells / CC50 NALM-60) was 3.04, the CC50 ([16]; Homo sapiens, Jurkat, 24 h incubation) was 1070 ± 90 nM and the “SI JURKAT” value ([16]; average CC50 of non-malignant cells / CC50 JURKAT) was 8.12.
